Reference: publication PMC13095408, “DBeQ derivative targets vacuolar protein sorting 4 functions in cancer cells and suppresses tumor growth in mice” (The Journal of Pharmacology and Experimental Therapeutics, 2025)

What was measured:
[1] = test system: GFP-CHMP4B-expressing U2OS cells; assay: GFP-CHMP4B accumulation cell-based assay (high-content microscopy); settings: for 4-107-induced GFP-CHMP4B accumulation on co-treatment: 100 nM BafA1 or 50 μM CQ with 2 μM 4-107, starved, 2 hours
Method: Plates were then scanned using the 20× objective for 1 hour with ≥100 cells/well across 6 fields/well. […] For all other assays, the cells were cultured overnight in black glass-bottom 96-well plates (Cellvis; P96-1.5H-N) then stained, rinsed, and treated with SM containing the indicated compounds (0.1% DMSO or 0.1% DMSO/0.1% ethanol [vehicle] final). Plates were scanned using the 20× NA .70 objective at the indicated intervals with ≥ 300 cells/well across 3 fields/well. […]

VPS4B = target: T1, VPS4B (Homo sapiens, UniProt O75351); assay: VPS4B ATPase activity, EnzChek Phosphate assay; type: biochemical; set-up: His tag (pET28a vector-encoded) (N); made in house; host or cells: Escherichia coli BL21(DE3)
T1 sequence (O75351 1-444): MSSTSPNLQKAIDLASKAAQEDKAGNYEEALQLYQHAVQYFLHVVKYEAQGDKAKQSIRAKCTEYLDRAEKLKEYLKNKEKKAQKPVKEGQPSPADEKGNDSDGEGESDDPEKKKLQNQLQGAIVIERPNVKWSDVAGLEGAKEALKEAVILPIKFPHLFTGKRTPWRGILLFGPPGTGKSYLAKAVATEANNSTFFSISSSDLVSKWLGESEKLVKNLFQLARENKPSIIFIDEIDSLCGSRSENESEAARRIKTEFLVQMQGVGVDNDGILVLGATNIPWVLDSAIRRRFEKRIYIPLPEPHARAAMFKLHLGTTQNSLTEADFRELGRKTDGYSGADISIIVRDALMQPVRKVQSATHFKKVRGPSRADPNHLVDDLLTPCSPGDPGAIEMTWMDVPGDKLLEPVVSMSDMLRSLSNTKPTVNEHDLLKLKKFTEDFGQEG
Method: VPS4B and VCP ATPase activities were measured using the EnzChek Phosphate assay for the quantification of released phosphate. Assay buffers were based on literature precedents ([Cupido et al, 2019], [2021]) as follows: VPS4B buffer (20 mM HEPES-KOH, pH 7.4, 25 mM KOAc, 2 mM MgCl2, 5 mM (NH4)2SO4, 0.5 mM CaCl2, 2.5 mM DTT, 0.1 mg/mL BSA, 0.005% v/v Triton X-100), VCP buffer (20 mM HEPES-NaOH, pH 7.4, 20 mM NaCl, 10 mM MgCl2, 5 mM (NH4)2SO4, 0.5 mM CaCl2, 2.5 mM DTT, 0.1 mg/mL BSA, 0.005% v/v Triton X-100). In black clear-bottom 384-well plates, 22.5 μL of 5% DMSO or 40× test compounds diluted in the respective assay buffer was added to each well. ATPases were diluted to 1 μM in the respective buffers containing 2× EnzChek Phosphate assay coupling reagents of 400 μM MESG and 2 U of PNP, then 25 μL was added to each well. Plates were mixed at 1000 rpm for 30 minutes at RT while being protected from light. The reaction was initiated by adding 2.5 μL of 20 mM MgATP or water followed by mixing at 1200 rpm for 30 seconds at RT. Plates were measured at 360 nm using a CLARIOstar plate reader (BMG LABTECH) for 20 minutes at 37 °C. ATPase activity was calculated as the amount of phosphate released over a 5-minute interval under linear initial velocity conditions. The remaining ATPase activity was calculated by normalizing compound-treated activity values to the DMSO control. IC50 was calculated by fitting normalized values to a sigmoidal dose-response curve with Hill slope = −1 using Graph Pad Prism 10.0.
To identify VPS4i, we developed enzyme- and cell-based VPS4 functional assays to serve as VPS4i-screening platforms. For the enzyme-based assay, we used the colorimetric EnzChek Phosphate assay that detects free phosphate with the advantage of continuous measurement of ATP hydrolysis over time. […] Due to the high sequence and structural similarity of AAA-ATPases, we also established a VCP ATPase assay to evaluate hit selectivity. […] For the cell-based assay, our approach was based on how VPS4 inhibition causes the accumulation of ESCRT-III ([Babst et al, 1998]; [Katoh et al, 2003]). We used an N-terminal GFP-tagged CHMP4B reporter system because it is the most abundant ESCRT-III subunit ([Katoh et al, 2004]; [Teis et al, 2008]). Our aim was to test compounds under short-term serum and amino acid starvation to stimulate ESCRT activity for easier detection of inhibitors ([Takahashi et al, 2018], [2019]). […] Overall, we established 2 systems for VPS4i screening, a VPS4B ATPase activity assay and a GFP-CHMP4B accumulation cell-based assay.

[2] = screened at 1 µM, mean ± S.D., Supplemental Table 2
[3] = screened at 5 µM, mean ± S.D., Supplemental Table 2
[4] = screened at 1 μM, starvation media, 1 hour, foci intensity per cell normalized to 4-107, mean ± SD, Table 1
[5] = remaining ATPase activity, screened at 5 μM, mean ± SD, Table 1

SMILES | GFP-CHMP4B (% 4-107) [1, 2] [% 4-107] | VPS4B ATPase (% DMSO) (VPS4B; [3]) | GFP-CHMP4B (% 4-107) [1, 4] [% 4-107] | VPS4B ATPase (% DMSO) (VPS4B; [5]) | 4-107-induced GFP-CHMP4B accumulation on co-treatment [1]
COc1cccc2c(NCc3cccc(OC(F)(F)F)c3)nc(NCc3ccccc3)nc12.Cl [Compound 5-33-iv] | 5.27 ± 1.53 | 25.77 ± 2.48 | – | – | –
COC(=O)c1ccc2c(ccn2-c2nc(NCc3ccc(S(N)(=O)=O)cc3)c3cccc(OC)c3n2)c1 [Compound 5-47] | 1.41 ± 0.61 | – | – | – | –
Fc1ccc2nc(NCc3ccccc3)nc(NCc3ccccc3)c2c1 [Compound 5-143] | 11.12 ± 2.40 | – | – | – | –
COc1ccc2c(Nc3ccccc3)nc(NCc3ccccc3)nc2c1 [Compound 7-45] | 24.94 ± 5.94 | – | – | – | –
COc1ccc2c(Nc3ccccc3)nc(Cl)nc2c1 [Compound 7-41] | 17.93 ± 2.08 | – | – | – | –
NCc1ccccc1 [Compound 2] | 6.69 ± 3.07 | 55.31 ± 5.04 | 6.69 ± 3.07 | 55.31 ± 5.04 | –
COc1cccc2c(NCCc3cccnc3)nc(-n3ccc4cncnc43)nc12 [Compound 5-63] | 5.28 ± 0.27 | 90.35 ± 0.07 | – | – | –
COc1cccc2c(NCc3ccccc3)nc(NC(c3ccc(F)cc3)c3ccc(F)cc3)nc12 [Compound 7-13] | 12.60 ± 1.04 | 39.86 ± 1.36 | – | – | –
COc1cccc2nc(NCc3ccccc3)nc(NCc3ccccc3)c12 [Compound 7-27] | 19.55 ± 2.22 | – | – | – | –
COc1cccc2c(NCc3ccccc3)nc(Nc3cccc4cc5ccccc5cc34)nc12 [Compound 5-129] | 1.25 ± 0.86 | 63.24 ± 0.19 | – | – | –
COc1cccc2c(NCCc3ccccc3)nc(N[C@@H](C)c3ccccc3)nc12 [Compound 5-83] | 1.83 ± 1.02 | 42.92 ± 3.93 | – | – | –
COc1cccc2c(NCc3ccc(C(F)(F)F)cc3)nc(-n3ccc4cncnc43)nc12 [Compound 5-55] | 2.25 ± 0.55 | 93.20 ± 1.22 | – | – | –
COc1cccc2c(NCc3ccccc3)nc(-c3cccc4ccccc34)nc12 [Compound 10] | 3.97 ± 0.16 | 49.12 ± 2.89 | 3.97 ± 0.16 | 49.12 ± 2.89 | –
COC(=O)c1ccc2ccn(-c3nc(NCc4ccccc4)c4cccc(OC)c4n3)c2c1 [Compound 8] | 1.38 ± 0.73 | 82.10 ± 2.19 | 1.38 ± 0.73 | 82.10 ± 2.19 | –
COc1cccc2c(NCCc3ccccc3)nc(N[C@H](C)c3ccccc3)nc12 [Compound 5-91] | 1.69 ± 0.12 | 40.44 ± 0.01 | – | – | –
COc1cccc2c(NCc3ccccc3)nc(-n3ccc4cc(C(=O)O)ccc43)nc12 [Compound 5-41-iv] | 1.29 ± 1.06 | 87.4 ± 1.43 | – | – | –

SMILES | GFP-CHMP4B (% 4-107) [1, 2] [% 4-107] | VPS4B ATPase (% DMSO) (VPS4B; [3]) | GFP-CHMP4B (% 4-107) [1, 4] [% 4-107] | VPS4B ATPase (% DMSO) (VPS4B; [5]) | 4-107-induced GFP-CHMP4B accumulation on co-treatment [1]
O=[N+]([O-])c1cccc2c(NCc3ccccc3)nc(NCc3ccccc3)nc12 [Compound 5] | 15.05 ± 0.55 | 86.38 ± 2.37 | 15.05 ± 0.55 | 86.38 ± 2.37 | –
COc1ccc2cccc(Nc3nc(NCc4ccccc4)c4cccc(OC)c4n3)c2c1 [Compound 5-119] | 2.49 ± 0.70 | 53.27 ± 1.65 | – | – | –
COc1ncnc2c1ccn2-c1nc(NCc2ccccc2)c2cccc(OC)c2n1 [Compound 5-51] | 2.51 ± 1.24 | 91.51 ± 3.26 | – | – | –
COc1cccc2c(NCc3ccccc3)nc(N[C@H](C)c3ccccc3)nc12 [Compound 5-89] | 9.13 ± 2.82 | 46.68 ± 2.80 | – | – | –
COC(=O)c1cccc2c1ccn2-c1nc(NCc2ccccc2)c2cccc(OC)c2n1 [Compound 5-135] | 4.63 ± 2.05 | 86.66 ± 2.70 | – | – | –
COc1cccc2c(NCc3ccncc3)nc(NCc3ccncc3)nc12 [Compound 5-11] | 1.10 ± 0.76 | 82.46 ± 1.64 | – | – | –
COc1ccc(CNc2nc(NCc3ccccc3)c3cccc(N)c3n2)cc1 [Compound 7-65] | 17.36 ± 5.75 | – | – | – | –
COc1cccc2c(NCc3ccccc3)nc(Nc3ccc4ccccc4c3)nc12.Cl [Compound 5-79] | 3.40 ± 0.70 | 76.35 ± 3.47 | – | – | –
COc1cccc2c(NCc3ccc(S(N)(=O)=O)cc3)nc(Cl)nc12 [Compound 5-17] | 2.87 ± 0.27 | 86.08 ± 7.25 | – | – | –
COc1cccc2c(NCc3ccccc3)nc(NCc3cccc(OC(F)(F)F)c3)nc12 [Compound 7-11] | 22.15 ± 1.19 | 46.29 ± 0.61 | – | – | –
COc1cccc2c(NCc3ccccc3)nc(Cl)nc12 [Compound 4-95] | 1.76 ± 0.74 | – | – | – | –
Nc1cccc2c(NCc3ccccc3)nc(NCc3cccc(F)c3)nc12 [Compound 7-77] | 26.24 ± 20.18 | – | – | – | –
COc1cccc2c(Nc3ccccc3)nc(NCc3ccccc3)nc12 [Compound 7-75] | 11.57 ± 12.42 | – | – | – | –
Nc1cccc2c(NCc3ccccc3)nc(NCc3ccc(F)cc3)nc12 [Compound 7-69] | 20.04 ± 6.12 | – | – | – | –
CO/C1=C\C(C)=C\[C@@H](C)[C@@H](O)[C@@H](C)C/C(C)=C/C=C/[C@H](OC)[C@@H]([C@@H](C)[C@@H](O)[C@H](C)[C@@]2(O)C[C@@H](O)[C@H](C)[C@@H](C(C)C)O2)OC1=O [BafA1, bafilomycin A1, reference compound] | – | – | – | – | blocked
CCN(CC)CCCC(C)Nc1ccnc2cc(Cl)ccc12 (stereo not drawn) [CQ, chloroquine diphosphate, reference compound] | – | – | – | – | blocked
